Results on eleven molecules are retold here after BindingDB's records for doi:10.1016/s0026-0495(96)90072-4 (Sandoz Pharma, 1996).

In assay [1] the target is Somatostatin receptor type 5 (Homo sapiens, UniProt P35346).
For assay [2], the target named is Somatostatin receptor type 3 (Homo sapiens, UniProt P32745).
The target of assay [3] is Somatostatin receptor type 1 (Homo sapiens, UniProt P30872).
Assay [4] addresses Somatostatin receptor type 2 (Homo sapiens, UniProt P30874).
Assay [5] deals with Somatostatin receptor type 4 (Homo sapiens, UniProt P31391).

SMILES strings stand for the structures. Positions of bridges follow the written chain, without caps; N, C: chain ends. Non-standard residues stand in square brackets, D forms with d. Residues, ends and D or L forms follow the SMILES beside them. *: point of attachment. d1Nal = N[C@H](Cc1cccc2ccccc12)C(=O)O; Asu = N[C@@H](CCCCCC(=O)O)C(=O)O; Nphe = O=C(O)CNCc1ccccc1; Ahp = NCCCCCCC(=O)O; Bn = c1ccc(C*)cc1

Sequence of Somatostatin receptor type 1 (P30872 whole entry): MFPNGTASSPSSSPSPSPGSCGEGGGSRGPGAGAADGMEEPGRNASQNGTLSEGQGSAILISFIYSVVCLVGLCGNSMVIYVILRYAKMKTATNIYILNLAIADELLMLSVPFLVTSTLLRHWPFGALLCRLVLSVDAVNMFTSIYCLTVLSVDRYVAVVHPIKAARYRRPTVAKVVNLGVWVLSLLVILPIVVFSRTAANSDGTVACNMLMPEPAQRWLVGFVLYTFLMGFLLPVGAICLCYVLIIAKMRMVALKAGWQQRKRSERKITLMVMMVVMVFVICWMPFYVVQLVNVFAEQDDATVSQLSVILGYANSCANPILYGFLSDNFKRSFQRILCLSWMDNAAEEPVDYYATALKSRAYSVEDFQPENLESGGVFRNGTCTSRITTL
Sequence of Somatostatin receptor type 4 (P31391 whole entry): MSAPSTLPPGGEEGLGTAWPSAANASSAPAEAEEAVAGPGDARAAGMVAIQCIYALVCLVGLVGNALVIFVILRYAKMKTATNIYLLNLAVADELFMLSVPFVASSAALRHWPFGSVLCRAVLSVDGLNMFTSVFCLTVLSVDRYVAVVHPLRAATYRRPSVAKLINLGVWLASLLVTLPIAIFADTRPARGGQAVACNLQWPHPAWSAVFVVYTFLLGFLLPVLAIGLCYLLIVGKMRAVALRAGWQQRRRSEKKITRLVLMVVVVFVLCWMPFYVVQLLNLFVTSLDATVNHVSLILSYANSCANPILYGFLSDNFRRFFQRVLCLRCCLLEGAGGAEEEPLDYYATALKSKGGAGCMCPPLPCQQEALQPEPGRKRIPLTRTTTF
Sequence of Somatostatin receptor type 2 (P30874 whole entry): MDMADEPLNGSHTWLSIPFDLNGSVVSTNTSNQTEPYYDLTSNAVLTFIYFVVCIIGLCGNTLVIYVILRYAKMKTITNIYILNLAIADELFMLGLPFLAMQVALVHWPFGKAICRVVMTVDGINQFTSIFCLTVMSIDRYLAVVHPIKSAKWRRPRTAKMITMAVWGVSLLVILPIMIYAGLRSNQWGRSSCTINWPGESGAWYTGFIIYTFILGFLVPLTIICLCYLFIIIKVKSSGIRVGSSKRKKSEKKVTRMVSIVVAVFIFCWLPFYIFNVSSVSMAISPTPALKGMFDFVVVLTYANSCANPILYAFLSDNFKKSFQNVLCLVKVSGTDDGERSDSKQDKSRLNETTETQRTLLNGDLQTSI
Sequence of Somatostatin receptor type 3 (P32745 whole entry): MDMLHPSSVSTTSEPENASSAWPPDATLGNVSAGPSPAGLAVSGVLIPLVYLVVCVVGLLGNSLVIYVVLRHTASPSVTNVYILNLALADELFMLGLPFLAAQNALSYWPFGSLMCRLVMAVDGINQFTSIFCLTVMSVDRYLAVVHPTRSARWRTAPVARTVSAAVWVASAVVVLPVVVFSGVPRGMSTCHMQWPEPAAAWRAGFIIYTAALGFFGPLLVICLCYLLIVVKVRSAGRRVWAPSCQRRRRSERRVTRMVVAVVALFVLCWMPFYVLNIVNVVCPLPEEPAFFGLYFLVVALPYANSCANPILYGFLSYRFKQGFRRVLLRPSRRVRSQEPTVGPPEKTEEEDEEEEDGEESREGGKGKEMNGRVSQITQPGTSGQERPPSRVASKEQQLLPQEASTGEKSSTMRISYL
Sequence of Somatostatin receptor type 5 (P35346 whole entry): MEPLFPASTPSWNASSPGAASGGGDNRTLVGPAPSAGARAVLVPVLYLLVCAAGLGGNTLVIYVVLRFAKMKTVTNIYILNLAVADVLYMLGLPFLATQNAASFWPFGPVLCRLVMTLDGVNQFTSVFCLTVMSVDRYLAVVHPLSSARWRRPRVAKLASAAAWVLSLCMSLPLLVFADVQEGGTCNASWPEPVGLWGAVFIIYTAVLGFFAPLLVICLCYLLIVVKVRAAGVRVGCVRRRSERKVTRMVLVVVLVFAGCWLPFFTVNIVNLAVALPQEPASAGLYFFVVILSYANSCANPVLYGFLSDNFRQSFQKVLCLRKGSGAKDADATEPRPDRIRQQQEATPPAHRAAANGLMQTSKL

With `C[C@@H](O)[C@@H]1NC(=O)[C@H](CCCCN)NC(=O)[C@@H](Cc2c[nH]c3ccccc23)NC(=O)[C@H](Cc2c[nH]c3ccccc23)NC(=O)[C@H](Cc2ccccc2)NC(=O)CCCCCCNC(=O)[C@H](Cc2ccccc2)NC1=O` [L-362855] (cyclo([Ahp]FW[dW]KTF)), the Ki in assay [1] stood at 0.1 nM; in assay [2], 6.3 nM; in assay [3], 100 nM; in assay [4], 0.79 nM; in assay [5] it was 100 nM.
Consider `C[C@@H](O)[C@H](NC(=O)[C@H](Cc1ccccc1)NC(=O)[C@@H](NC(=O)[C@H](CCCCN)NC(=O)[C@@H](Cc1c[nH]c2ccccc12)NC(=O)[C@H](Cc1ccccc1)NC(=O)[C@H](Cc1ccccc1)NC(=O)[C@H](N)Cc1ccccc1)[C@@H](C)O)C(N)=O` [CAS_133073-82-2] (H-[dF]FF[dW]KTFT-NH2), for which the Ki in assay [1] worked out at 1.58 nM; in assay [2], 1.99 nM; in assay [3], 6.3 nM; in assay [4], 7.94 nM; in assay [5], 15.8 nM.
`CC(C)[C@@H]1NC(=O)[C@H](CCCCN)NC(=O)[C@@H](Cc2c[nH]c3ccccc23)NC(=O)[C@H](Cc2ccc(O)cc2)NC(=O)[C@@H](NC(=O)[C@H](N)Cc2ccc3ccccc3c2)CSSC[C@@H](C(=O)N[C@H](C(N)=O)[C@@H](C)O)NC1=O` [3-(2-Naphtyl)-D-Ala-L-Cys(1)-L-Tyr-D-Trp-L-Lys-L-Val-L-Cys(1)-L-Thr-NH2]: the Ki in assay [2] is 63.1 nM; in assay [4], 0.5 nM.
On to `C[C@@H](O)[C@@H]1NC(=O)[C@H](CCCCN)NC(=O)[C@@H](Cc2c[nH]c3ccccc23)NC(=O)[C@H](Cc2ccccc2)NC(=O)[C@@H]2CCCN2C(=O)[C@H](Cc2ccccc2)NC1=O` (cyclo(PF[dW]KTF)), for which the Ki was 39.8 nM in assay [1]; 126 nM in assay [2]; 631 nM in assay [3]; 0.63 nM in assay [4]; 100 nM in assay [5].
In the same order, the values of `CSCC[C@@H]1NC(=O)[C@@H](NC(=O)[C@H](CC(N)=O)NC(=O)[C@H](CC(C)C)NC(=O)[C@@H]2CCCN2C(=O)[C@H](CCCCN)NC(=O)[C@H](CO)NC(=O)[C@@H](NC(=O)[C@@H](NC(=O)[C@@H](NC(=O)[C@H](CC(N)=O)NC(=O)[C@@H](N)CC(=O)O)[C@@H](C)O)C(C)C)[C@@H](C)O)CSSC[C@@H](C(=O)O)NC(=O)[C@H](C)NC(=O)[C@H]([C@@H](C)O)NC(=O)[C@H](CCCN=C(N)N)NC(=O)[C@H](CO)NC(=O)[C@H](CCCCN)NC(=O)[C@H](Cc2c[nH]c3ccccc23)NC(=O)[C@H](Cc2ccccc2)NC(=O)[C@H](Cc2ccc(O)cc2)NC(=O)[C@H](CC(N)=O)NC1=O` [SS-22] (H-DNTVTSKPLNCMNYFWKSRTAC-OH; disulfide 11-22) are 12.6 nM, 100 nM, 794 nM, 126 nM and 100 nM.
Consider `CC(C)[C@H](NC(=O)[C@H](CCCCN)NC(=O)[C@@H](Cc1c[nH]c2ccccc12)NC(=O)[C@H](Cc1ccc(O)cc1)NC(=O)[C@H](Cc1ccccc1)NC(=O)[C@H](N)Cc1ccccc1)C(=O)N[C@@H](Cc1ccccc1)C(=O)N[C@H](Cc1cccc2ccccc12)C(N)=O` [BIM 23056] (H-[dF]FY[dW]KVF[d1Nal]-NH2), for which the inhibition constant Ki in assay [1] was determined as 12.6 nM; in assay [2], 100 nM; in assay [3] it was 100 nM; in assay [4] it was 200 nM; in assay [5], 100 nM.
For the molecule `CSCC[C@H](NC(=O)[C@H](C)NC(=O)[C@@H]1CCCN1C(=O)[C@H](CC(N)=O)NC(=O)[C@@H](N)CO)C(=O)N[C@@H](C)C(=O)N1CCC[C@H]1C(=O)N[C@@H](CCCN=C(N)N)C(=O)N[C@@H](CCC(=O)O)C(=O)N[C@@H](CCCN=C(N)N)C(=O)N[C@@H](CCCCN)C(=O)N[C@@H](C)C(=O)NCC(=O)N[C@H]1CSSC[C@@H](C(=O)O)NC(=O)[C@H](CO)NC(=O)[C@H]([C@@H](C)O)NC(=O)[C@H](Cc2ccccc2)NC(=O)[C@H]([C@@H](C)O)NC(=O)[C@H](CCCCN)NC(=O)[C@H](Cc2c[nH]c3ccccc23)NC(=O)[C@H](Cc2ccccc2)NC(=O)[C@H](Cc2ccccc2)NC(=O)[C@H](CC(N)=O)NC(=O)[C@H](CCCCN)NC1=O` [SS-25] (H-SNPAMAPRERKAGCKNFFWKTFTSC-OH; disulfide 14-25), the Ki was found to be 0.19 nM in assay [1]; 0.5 nM in assay [2]; 0.79 nM in assay [3]; 0.31 nM in assay [4]; 1 nM in assay [5].
Take `C[C@@H](OCc1ccccc1)[C@@H]1NC(=O)[C@H](CCCCN)NC(=O)[C@@H](Cc2c[nH]c3ccccc23)NC(=O)[C@H](Cc2ccccc2)NC(=O)CCCCCCNC1=O` [c[Aha-Phe-D-Trp-Lys-Thr(Bzl)]] (cyclo([Ahp]F[dW]KT(Bn))): the Ki stood at 316 nM in assay [1]; 398 nM in assay [2]; 398 nM in assay [3]; 2510 nM in assay [4]; 3160 nM in assay [5].
For the molecule `C[C@@H](O)[C@@H]1NC(=O)[C@H](Cc2ccc(O)cc2)NC(=O)[C@H]([C@@H](C)O)NC(=O)[C@H](CCCCN)NC(=O)[C@H](Cc2c[nH]c3ccccc23)NC(=O)[C@H](Cc2ccccc2)NC(=O)[C@H](Cc2ccccc2)NC(=O)[C@H](CC(N)=O)NC(=O)[C@H](CCCCN)NC(=O)CCCCC[C@@H](C(=O)O)NC(=O)[C@H](CO)NC1=O` [CGP-23996] (KNFFWKTYTS[Asu]-OH; lactam N-11), the Ki is 2.51 nM in assay [1]; 0.39 nM in assay [2]; 3.98 nM in assay [3]; 0.79 nM in assay [4]; 1.99 nM in assay [5].
`CC(C)[C@@H]1NC(=O)[C@H](CCCCN)NC(=O)[C@@H](Cc2c[nH]c3ccccc23)NC(=O)[C@H](Cc2ccc(O)cc2)NC(=O)[C@@H](NC(=O)[C@H](N)Cc2ccccc2)CSSC[C@@H](C(=O)N[C@@H](Cc2c[nH]c3ccccc23)C(N)=O)NC1=O` [CAS_71306] (H-[dF]CY[dW]KVCW-NH2; disulfide 2-7) yielded an inhibition constant (Ki) in assay [4] of 0.07 nM. That is a picomolar value.
For the molecule `CC(=O)N(CC(=O)NC1CSSCC(C(=O)NC(Cc2c[nH]c3ccccc23)C(N)=O)NC(=O)C(C(C)C)NC(=O)C(CCCCN)NC(=O)C(Cc2c[nH]c3ccccc23)NC(=O)C(Cc2ccc(O)cc2)NC1=O)Cc1ccccc1` (stereo not drawn) [RC 160II] (Ac-[Nphe]CYWKVCW-NH2; disulfide 2-7; configuration not given here), the inhibition constant (Ki) is 5.01 nM in assay [1]; 100 nM in assay [2]; 100 nM in assay [3]; 1.58 nM in assay [4]; 100 nM in assay [5].

What is called Ki is a dissociation constant, usually derived from enzyme kinetics or from competition with a known ligand. Low readings indicate tighter binding, high ones weaker binding.
